Assay results from US9067896B2, “Crystalline forms of 3-(2,6-dichloro-3,5-dimethoxy-phenyl)-1-{6-[4-(4-ethyl-piperazin-1-yl) -phenylamino]-pyrimidin-4-yl}-1-methyl-urea and salts thereof” (Novartis AG, priority 2009, dated 2015).
Counter-ions that a name gives are not always drawn. Each block holds one compound with its values, some of them ahead of it.

Assays:
Assay type in all cases: physicochemical
[1] = Hygroscopicity from DVS sorption/desorption isotherms; conditions: for weight gain due to water absorption (DVS): listed as hydrochloride salt
Description: Hygroscopicity was measured from sorption/desorption isotherms using Surface Measurement System DVS-1 at 25±0.5° C. Samples were evaluated at various humidities including 75%, 85%, and 95%.
The free base (anhydrous and monohydrate) and its phosphate salt (form A) were subjected to sorption and desorption cycle using a VTI brand instrument. The solids were collected after the experiment and analyzed. […] The DVS plots are shown in FIGS. 4A (free base, anhydrous), 4B (phosphate salt (form A) and 4C (free base, monohydrate). The maximum water uptake for the phosphate salt (form A) was less than 2% (i.e. 0.7%) at 25° C. up to 95% relative humidity (rh) (see Table 9). The maximum water uptake for the monohydrate was less than 1.4% at 25° C. up to 95% RH. The monohydrate with an approximate water content of 3% could not be completely dried during the experiment but the water that could be removed was reversibly reabsorbed. The plateau of existence of the monohydrate form is found to be within 10% and 95% RH with a slight hysteresis at the second desorption cycle.

[2] = Intrinsic dissolution rate; conditions: 37° C., disc 50 rpm, 290.2 nm
Description: The intrinsic dissolution rate measurements were carried out in 0.5 cm^2 VanKel punch and die assemblies at a pellet pressure of 2000 pounds. […]
The intrinsic dissolution rate was determined for the phosphate salt in water, pH=6.8 and 0.1N HCl, and for the free base monohydrate in pH=6.8, 4.5 and 0.1N HCl. The measurements were carried out on a VanKel instrument using a Cary UV/VIS spectrophotometer (Table 2).

[3] = Determination of solubility (equilibration in solvent, filtrate by HPLC); conditions: for Solubility: initial solubility test
Description: Excess free base (free base of Formula I), its phosphate salt (the monophosphoric acid salt of the free base), or another acid salt was equilibrated in solvents for 1 day at 25±0.5° C. The resultant slurry was filtered and the filtrate used for solubility determination by HPLC.
Solubility of the monohydrate of the anhydrous and monohydrate free base was measured in various aqueous media (e.g., pH 6.8 buffer, pH 4.5 buffer, pH 1 buffer), including simulated and actual human fluids.
The human fluids were collected from 12 human subjects.
Solubility studies of the phosphate salt were undertaken in aqueous media and in human fluids at 24 hours.

maximum water uptake ([1]; 25° C. up to 95% relative humidity): less than 1.4%
Intrinsic DR value ([2]; HCl 0.1N): 0.3132 mg/min/cm^2
Intrinsic DR value ([2]; pH = 4.5): 0.0001 mg/min/cm^2
Intrinsic DR value ([2]; pH = 6.8): 0.0026 mg/min/cm^2
Solubility in mg/ml after 24 h ([3]; Fasted State Simulated Intestinal Fluid (FaSSIF), listed as Monohydrate Free Base): 0.003 mg/mL
Solubility in mg/ml after 24 h ([3]; Fed State Simulated Intestinal Fluid (FeSSIF), listed as Monohydrate Free Base): 0.459 mg/mL
Solubility in mg/ml after 24 h ([3]; HIF, fed, listed as Monohydrate Free Base): 0.040 mg/mL
Solubility in mg/ml after 24 h ([3]; Human gastric fluid (HGF), listed as Monohydrate Free Base): 0.002 mg/mL
Solubility in mg/ml after 24 h ([3]; Human intestinal fluid (HIF) fasted, listed as Monohydrate Free Base): 0.019 mg/mL
Solubility in mg/ml after 24 h ([3]; Simulated Gastric Fluid (SGF), listed as Monohydrate Free Base): 0.020 mg/mL
Solubility in mg/ml after 24 h ([3]; pH 1 HCl, listed as Monohydrate Free Base): 0.103 mg/mL
Solubility in mg/ml after 24 h ([3]; ph 4.5 Acetate, listed as Monohydrate Free Base): 0.054 mg/mL
Compound: CCN1CCN(c2ccc(Nc3cc(N(C)C(=O)Nc4c(Cl)c(OC)cc(OC)c4Cl)ncn3)cc2)CC1 [Free base (monohydrate)]

weight gain by DVS ([1]; over the humidities tested (75%, 85%, 95% RH)): about 10%
Compound: Malonate

Compound: Methanesulfonate
Solubility ([3]; Water): 870 µg/mL
Solubility ([3]; pH3 Buffer): 3 µg/mL

weight gain due to water absorption (DVS) ([1]; 75% RH): about 4.1%
weight gain due to water absorption (DVS) ([1]; 95% RH): about 16.9%
hygroscopicity (in words) ([1]; listed as hydrochloride): hygroscopic
Solubility in mg/ml after 24 h ([3]; Fasted State Simulated Intestinal Fluid (FaSSIF)): 0.003 mg/mL
Solubility in mg/ml after 24 h ([3]; Fed State Simulated Intestinal Fluid (FeSSIF)): 0.248 mg/mL
Solubility in mg/ml after 24 h ([3]; HIF, fed): 0.0109 mg/mL
Solubility in mg/ml after 24 h ([3]; Human gastric fluid (HGF)): 0.0348 mg/mL
Solubility in mg/ml after 24 h ([3]; Human intestinal fluid (HIF) fasted): 0.0154 mg/mL
Solubility in mg/ml after 24 h ([3]; Simulated Gastric Fluid (SGF)): 0.073 mg/mL
Solubility in mg/ml after 24 h ([3]; pH 1 HCl): 0.075 mg/mL
Solubility in mg/ml after 24 h ([3]; ph 4.5 Acetate): 0.822 mg/mL
Compound: CCN1CCN(c2ccc(Nc3cc(N(C)C(=O)Nc4c(Cl)c(OC)cc(OC)c4Cl)ncn3)cc2)CC1 [Hydrochloride Salt]
